{"source": "paper PMC9325719", "about": "(Nature Communications, 2022)", "molecular_target": "Na+-NQR (Na+-pumping NADH-ubiquinone oxidoreductase), inhibitor site at NqrB N-terminal region (Vibrio cholerae, UniProt A5F5X0, E157A)", "settings": "substrates NADH and ubiquinone-1; 50% inhibition not reached at highest concentration; mutant activity 50-60% lower than wild type", "note": "pIC50: −log10 of the molar value."}
{"smiles": "CCCCCCCC[C@H]1O[C@H]1C/C=C/C=C/[C@H](O)CC(=O)NC1=C[C@](C)(CC)OC1=O", "note": "[korormicin A]", "values": [{"measurement": "pIC50", "value": "< 5.70"}]}
